Laboratory results as given in paper PMC3706206 (Chemico-biological interactions, 2011).
Like-named read-outs stand apart in the source and are kept apart here.

How the values were obtained:
[1] = molecular target: T1, human placenta GST (hGSTP1-1) (Homo sapiens, UniProt P09211); assay: Inhibition of human placenta GST; format: biochemical; conditions: for GST inhibition: 25 µM; for GST activity inhibition: quinone formed with tyrosinase; for GST inhibition in the absence and presence of tyrosinase: controls
T1 sequence (P09211 2-210 limits assumed): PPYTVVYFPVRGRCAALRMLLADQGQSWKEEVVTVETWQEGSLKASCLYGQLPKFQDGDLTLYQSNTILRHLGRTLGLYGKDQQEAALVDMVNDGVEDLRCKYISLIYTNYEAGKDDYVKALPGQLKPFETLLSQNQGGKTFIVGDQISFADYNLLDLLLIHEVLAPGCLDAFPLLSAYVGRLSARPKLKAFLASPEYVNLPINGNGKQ

[2] = molecular target: T1, human placenta GST (hGSTP1-1); assay: Reversible/irreversible nature of GST inhibition; format: biochemical; conditions: GST activity after filtering the reaction mixture through 10 K Millipore filter; 25 µM
[3] = molecular target: T2, GST (human placenta, hGSTP1-1) (Homo sapiens, UniProt P09211); assay: Competitive and non-competitive GST inhibition, Lineweaver-Burk plots, Ki; format: biochemical; conditions: for Mechanism of GST inhibition, with respect to GSH (0.2–1 mM): Inhibition / Mechanism of GST inhibition, with respect to CDNB (0.2–1 mM): Inhibition: CAPE 100 µM, CAPE-quinone 10 µM, CAPE-SG 10 µM, EA 20 µM; for Ki′ with respect to GSH (0.2–1 mM) / Ki′ with respect to CDNB (0.2–1 mM): mixed inhibition; for Ki: apparent Ki
T2 sequence (P09211 2-210 limits assumed): as above

[4] = system: SK-MEL-28 melanoma cells; assay: Effect of modulators on CAPE toxicity; format: cell-based, human; conditions: for MTT assay value, No modulator / MTT assay value, Ethacrynic acid (2 µM) / MTT assay value, MK-571 (10 µM) / MTT assay value, Probenecid (500 µM): 48 h; for MTT assay value, Ethacrynic acid (2 µM): 1 h pretreatment with EA; for MTT assay value, MK-571 (10 µM): 1 h pretreatment with MK-571; for MTT assay value, Probenecid (500 µM): 1 h pretreatment with probenecid; for decrease of the IC50 value of CAPE (30 µM): MK-571 10 µM or probenecid 500 µM with CAPE 30 µM; for MTT assay value, modulator alone, Cells (1% DMSO) / MTT assay value, modulator alone, Cells: no CAPE, MK-571 10 µM, probenecid 500 µM, ethacrynic acid 2 µM
[5] = system: SK-MEL-28 melanoma cells; assay: MTT cell cytotoxicity assay; format: cell-based, human; conditions: for IC50: Homo sapiens, SK-MEL-28, 48 h, read-out: IC50 (48 h)
[6] = system: tyrosinase; assay: Metabolism by tyrosinase; format: biochemical, Mushroom
[7] = molecular target: T2, GST (human placenta, hGSTP1-1); assay: GST substrate assay; format: biochemical; conditions: for substrate for GST (GSH consumption as biomarker): GST 0.1 U/mL, GSH 500 µM, no tyrosinase, up to 60 min at 37 °C
[8] = cited from earlier work
[9] = system: SK-MEL-28 melanoma cells; assay: Mitochondrial membrane potential assay; format: cell-based, human; conditions: for increase of the effect of CAPE (15–30 µM) on mitochondrial membrane potential: MK-571 10 µM or probenecid 500 µM, approximate; for further decrease of mitochondrial membrane potential for CAPE (15 µM) / further decrease of mitochondrial membrane potential for CAPE (30 µM): combination with MK-571 10 µM or probenecid 500 µM, 48 h
[10] = system: SK-MEL-28 cells; assay: Annexin V-FITC/propidium iodide apoptosis assay; format: cell-based, human; conditions: for increase of CAPE (15 µM) induced apoptotic cell death / increase of CAPE (30 µM) induced apoptotic cell death: MK-571 10 µM or probenecid 500 µM, 1 h pretreatment, 48 h
[11] = system: GST in human SK-MEL-28 melanoma cell homogenate; assay: Inhibition of GST in human SK-MEL-28 melanoma cell homogenate; format: biochemical; conditions: 15–100 µM, in the presence of tyrosinase (10 U/mL)
[12] = read-out: Ki with respect to CDNB (0.2–1 mM), GSH 1 mM
[13] = read-out: Ki with respect to GSH (0.2–1 mM), CDNB 1 mM
[14] = 30 µM, 48 h incubation (data not shown)

caffeic acid phenethyl ester glutathione conjugate [CAPE-SG conjugate]
GST inhibition [1]: ≥ 85% | reversible or irreversible nature of GST inhibition [2]: reversible | Mechanism of GST inhibition, with respect to GSH (0.2–1 mM): Inhibition ([3]; CDNB 1 mM): Mixed | Ki′ with respect to GSH (0.2–1 mM) ([3]; CDNB 1 mM): 14 µM | Mechanism of GST inhibition, with respect to CDNB (0.2–1 mM): Inhibition ([3]; GSH 1 mM): Competitive | Ki [3, 12]: 3.1 µM | Ki [3, 13]: 2.6 µM

CCCCS(=N)(=O)CCC(N)C(=O)O (centres unmarked) [BSO]
effect on CAPE induced toxicity in SK-MEL-28 cells ([4]; data not shown): enhanced

O=C(/C=C/C1=CC(=O)C(=O)C=C1)OCCc1ccccc1 [CAPE-quinone]
GST activity inhibition ([1]; 10 µM): 70% | GST inhibition [1]: ≥ 85% | GST activity inhibition ([1]; 50 µM): 93% | reversible or irreversible nature of GST inhibition [2]: irreversible covalent binding | Mechanism of GST inhibition, with respect to GSH (0.2–1 mM): Inhibition ([3]; CDNB 1 mM): Competitive | Mechanism of GST inhibition, with respect to CDNB (0.2–1 mM): Inhibition ([3]; GSH 1 mM): Mixed | Ki′ with respect to CDNB (0.2–1 mM) ([3]; GSH 1 mM): 8.8 µM | Ki [3, 12]: 2.7 µM | Ki [3, 13]: 0.7 µM

N[C@@H](CC1=CC(=O)C(=O)C=C1)C(=O)O [tyrosine–quinone]
GST activity inhibition ([1]; 50 µM): no significant GST inhibition

O=C(/C=C/c1ccc(O)c(O)c1)OCCc1ccccc1 [CAPE, caffeic acid phenethyl ester]
cell toxicity ([5]; 15 µM, 48 h incubation): 48% | IC50 [5]: 15 µM | inhibition at 50 µM ([1]; read-out: GST activity inhibition): 13% | reversible or irreversible nature of GST inhibition [2]: weak and reversible inhibitors of GST | substrate for tyrosinase [6]: substrates for tyrosinase | CAPE metabolized by tyrosinase ([6]; after a 60-min incubation): 90% | substrate for GST (GSH consumption as biomarker) [7]: none of these tested compounds, including CAPE, 4-HA, tyrosine, and CA, was a substrate for GST | MTT assay value, No modulator ([4]; CAPE 15 µM): 52 ± 2 | MTT assay value, Ethacrynic acid (2 µM) ([4]; CAPE 15 µM): 51 ± 2 | MTT assay value, MK-571 (10 µM) ([4]; CAPE 15 µM): 39 ± 3 | MTT assay value, Probenecid (500 µM) ([4]; CAPE 15 µM): 31 ± 2 | MTT assay value, No modulator ([4]; CAPE 30 µM): 38 ± 2 | MTT assay value, Ethacrynic acid (2 µM) ([4]; CAPE 30 µM): 39 ±4 | MTT assay value, MK-571 (10 µM) ([4]; CAPE 30 µM): 26 ± 1 | MTT assay value, Probenecid (500 µM) ([4]; CAPE 30 µM): 29 ± 1 | Mechanism of GST inhibition, with respect to GSH (0.2–1 mM): Inhibition ([3]; CDNB 1 mM): Mixed | Ki′ with respect to GSH (0.2–1 mM) ([3]; CDNB 1 mM): 2990 µM | Mechanism of GST inhibition, with respect to CDNB (0.2–1 mM): Inhibition ([3]; GSH 1 mM): Mixed | Ki′ with respect to CDNB (0.2–1 mM) ([3]; GSH 1 mM): 451 µM | Ki ([3]; Ki with respect to CDNB (0.2–1 mM), GSH 1 mM): 233 µM | Ki ([3]; Ki with respect to GSH (0.2–1 mM), CDNB 1 mM): 942 µM | stability in human plasma [8]: highly stable

COC1=CC(=O)C(=O)C=C1 [4-HA-quinone]
GST activity inhibition ([1]; 50 µM): no significant GST inhibition

CCCN(CCC)S(=O)(=O)c1ccc(C(=O)O)cc1 [probenecid]
increase of the effect of CAPE (15–30 µM) on mitochondrial membrane potential [9]: 8–11 fold | further decrease of mitochondrial membrane potential for CAPE (15 µM) [9]: 56% | further decrease of mitochondrial membrane potential for CAPE (30 µM) [9]: 68% | increase of CAPE (15 µM) induced apoptotic cell death [10]: 13% | increase of CAPE (30 µM) induced apoptotic cell death [10]: 16% | change of CAPE-induced apoptotic cell death ([10]; probenecid 500 µM, CAPE at 15 or 30 µM): approximately doubled | decrease of the IC50 value of CAPE (30 µM) [4]: 9% | MTT assay value, modulator alone, Cells (1% DMSO) [4]: 99 ± 6 | MTT assay value, modulator alone, Cells [4]: 97 ± 5

N[C@@H](Cc1ccc(O)cc1)C(=O)O [tyrosine, L-tyrosine]
cell toxicity [5, 14]: 2–27% | IC50 [5]: > 5000 µM | GST inhibition in the absence and presence of tyrosinase [1]: no GST inhibition | substrate for tyrosinase [6]: substrates for tyrosinase | substrate for GST (GSH consumption as biomarker) [7]: none of these tested compounds, including CAPE, 4-HA, tyrosine, and CA, was a substrate for GST | GST inhibition in SK-MEL-28 melanoma cell homogenate [11]: did not show any significant GST inhibition

O=C(O)/C=C/C1=CC(=O)C(=O)C=C1 [CA-quinone]
reversible or irreversible nature of GST inhibition [2]: irreversibly

O=C(O)/C=C/c1ccc(O)c(O)c1 [CA, caffeic acid]
cell toxicity [5, 14]: 2–27% | IC50 [5]: 2300 µM | reversible or irreversible nature of GST inhibition [2]: weak and reversible inhibitors of GST | substrate for tyrosinase [6]: substrates for tyrosinase | substrate for GST (GSH consumption as biomarker) [7]: none of these tested compounds, including CAPE, 4-HA, tyrosine, and CA, was a substrate for GST

C=C(CC)C(=O)c1ccc(OCC(=O)O)c(Cl)c1Cl [Ethacrynic acid, ethacrynic acid]
effect on the IC50 value of CAPE towards melanoma cells ([4]; EA 2 µM): did not affect | MTT assay value, modulator alone, Cells (1% DMSO) [4]: 96 ± 3 | MTT assay value, modulator alone, Cells [4]: 97 ± 4

O=[N+]([O-])c1ccc(Cl)c([N+](=O)[O-])c1 [CDNB, 1-chloro-2,4-dinitrobenzene]
glutathione consumed per mole of CDNB ([7]; CDNB metabolized by GST, 60 min incubation, positive control): 0.6 mol

COc1ccc(O)cc1 [4-HA, 4-hydroxyanisole]
cell toxicity [5, 14]: 2–27% | IC50 [5]: 60 µM | GST inhibition in the absence and presence of tyrosinase [1]: no GST inhibition | substrate for tyrosinase [6]: substrates for tyrosinase | substrate for GST (GSH consumption as biomarker) [7]: none of these tested compounds, including CAPE, 4-HA, tyrosine, and CA, was a substrate for GST

caffeic acid glutathione conjugate [CA-SG conjugate]
reversible or irreversible nature of GST inhibition [2]: reversibly

CN(C)C(=O)CCSC(SCCC(=O)O)c1cccc(/C=C/c2ccc3ccc(Cl)cc3n2)c1 (centres unmarked) [MK-571]
increase of the effect of CAPE (15–30 µM) on mitochondrial membrane potential [9]: 3–4 fold | further decrease of mitochondrial membrane potential for CAPE (15 µM) [9]: 10% | further decrease of mitochondrial membrane potential for CAPE (30 µM) [9]: 29% | increase of CAPE (15 µM) induced apoptotic cell death [10]: 3% | increase of CAPE (30 µM) induced apoptotic cell death [10]: 7% | decrease of the IC50 value of CAPE (30 µM) [4]: 12% | MTT assay value, modulator alone, Cells (1% DMSO) [4]: 97 ± 1 | MTT assay value, modulator alone, Cells [4]: 98 ± 3
